Test results as given in US20260297060A1, “COMPOUNDS FOR THE DEGRADATION OF MUTANT BRAF” (C4 THERAPEUTICS, INC., priority 2023, published 2026).

What follows are compounds tested against T1, human bile salt export pump (BSEP) efflux transporter (Homo sapiens, UniProt O95342) (assay: BSEP Vesicular Transport Inhibition Assay (IC50 determination)). Details: human BSEP (HEK293) vesicles; taurocholate 0.2 μM; 4 mM Mg-ATP; 10 concentrations, 1 replicate.
T1 construct: purchased SOLVO Biotechnology Charles River Laboratories, Szeged, Hungary; host or cells: HEK293 (inside out membrane vesicles)
Format: biochemical
Description: The vesicular transport (VT) assays were performed using inside out membrane vesicles derived from HEK293 cells expressing the specified human bile salt export pump (BSEP) efflux transporter. The membrane vesicles were procured from SOLVO Biotechnology Charles River Laboratories, Szeged, Hungary.
The principle of the assay relies on measuring the accumulation of substrate into inside out vesicles containing the efflux transporter. By utilizing inside out vesicles, the ATP-dependent transport of substrate is directed into the vesicular lumen, where low permeability compounds are then essentially trapped.
For the IC50 screen inhibition assay, 10 concentrations of each compound were tested in the presence of ATP (active transport) in 1 replicate.
The solvent control (DMSO) was tested in the presence of ATP (active transport) and in the presence of AMP (background) in 8 replicates.
Vesicular transport inhibition assays were performed using the specific parameters for each transporter inhibition assay described in Table 53.
Table 54 specifies treatment groups and concentration of compounds, that were examined in the vesicular transport inhibition assay. Detailed data of IC50 screen inhibition assay are shown in Table 55 and detailed data of 1 concentration inhibition assay are shown in Table 56.
The vesicular transport inhibition assay was performed with 4 mM Mg-ATP. For the IC50 screen inhibition assay, 10 concentrations of each compound were tested in the presence of ATP in 1 replicate. For the 1 concentration inhibition assay, 1 concentration of each compound was tested in the presence of ATP (active transport) in 2 replicates. The solvent control (DMSO) was tested in the presence of 4 mM Mg-ATP (active transport) and in the presence of 4 mM AMP (background) in 8 replicates.
The BSEP membrane vesicle suspension was mixed with the ice-cold transport buffer, then the taurocholate probe substrate solution was added (Reaction mixture, 50 μL per well). The compounds were added to the reaction mixture at 1.5-times the final assay concentration. […].
Reaction mixtures and the start reagent (Mg-ATP or AMP in transport buffer) were pre-warmed separately for 15 minutes to reach the incubation temperature of 37° C. […]
The reaction was initiated by the addition of the start reagent (25 μL) to the reaction mixture (diluting the reaction mixture to the final concentration). […] After the 5-minute incubation at 37° C., the reaction was stopped by the addition of 250 μL ice-cold washing mix to each well. […]
The samples were then be transferred to a filter plate and washed with 200 μL cold washing mix5-times to remove any free compounds or taurocholate probe substrate. The amount of taurocholate probe substrate inside the filtered vesicles were determined by liquid scintillation counting. […]

T1 sequence (O95342 whole entry): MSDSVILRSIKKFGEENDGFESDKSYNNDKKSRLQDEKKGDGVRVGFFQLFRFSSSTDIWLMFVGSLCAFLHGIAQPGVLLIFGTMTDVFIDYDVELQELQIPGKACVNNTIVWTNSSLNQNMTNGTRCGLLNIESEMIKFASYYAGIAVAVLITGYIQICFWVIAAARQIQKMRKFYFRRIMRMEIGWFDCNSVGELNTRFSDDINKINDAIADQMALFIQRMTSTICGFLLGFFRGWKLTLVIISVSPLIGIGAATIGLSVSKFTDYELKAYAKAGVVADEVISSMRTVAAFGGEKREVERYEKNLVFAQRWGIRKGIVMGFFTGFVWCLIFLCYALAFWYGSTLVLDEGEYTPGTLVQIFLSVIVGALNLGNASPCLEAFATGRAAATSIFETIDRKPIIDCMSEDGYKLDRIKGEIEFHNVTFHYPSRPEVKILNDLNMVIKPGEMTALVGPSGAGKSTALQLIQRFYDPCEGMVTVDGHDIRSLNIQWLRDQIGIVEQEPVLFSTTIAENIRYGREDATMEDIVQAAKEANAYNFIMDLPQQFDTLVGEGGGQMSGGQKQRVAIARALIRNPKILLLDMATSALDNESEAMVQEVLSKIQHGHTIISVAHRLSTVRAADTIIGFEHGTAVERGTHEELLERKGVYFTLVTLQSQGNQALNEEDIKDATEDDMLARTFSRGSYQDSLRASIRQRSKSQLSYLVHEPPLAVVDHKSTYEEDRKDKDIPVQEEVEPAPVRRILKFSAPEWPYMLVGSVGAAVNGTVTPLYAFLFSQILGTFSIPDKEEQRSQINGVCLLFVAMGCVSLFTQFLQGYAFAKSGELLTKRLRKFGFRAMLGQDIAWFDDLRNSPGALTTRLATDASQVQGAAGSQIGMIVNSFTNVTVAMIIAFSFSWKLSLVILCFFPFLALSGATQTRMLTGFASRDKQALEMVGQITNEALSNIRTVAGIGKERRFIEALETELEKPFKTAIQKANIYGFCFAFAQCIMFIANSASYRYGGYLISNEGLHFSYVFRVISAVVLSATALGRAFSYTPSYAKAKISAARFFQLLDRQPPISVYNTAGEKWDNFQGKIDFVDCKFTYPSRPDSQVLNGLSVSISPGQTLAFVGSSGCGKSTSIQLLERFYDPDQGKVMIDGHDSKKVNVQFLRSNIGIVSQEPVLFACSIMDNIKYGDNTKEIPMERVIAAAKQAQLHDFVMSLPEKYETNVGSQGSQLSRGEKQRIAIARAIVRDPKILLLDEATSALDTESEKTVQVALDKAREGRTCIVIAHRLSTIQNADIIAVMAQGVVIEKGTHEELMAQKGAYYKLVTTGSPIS

Structure (SMILES)	BSEP Inhibition/IC50 [µM]
CCN(C)S(=O)(=O)Nc1ccc(F)c(Oc2ccc3ncn([C@H]4COC5(CCN(C6CCC(c7cc8c(cc7F)c(N7CCC(=O)NC7=O)nn8C)CC6F)CC5)C4)c(=O)c3c2)c1C#N (single isomer, unassigned) [Compound 28]	1.96
CCN(C)S(=O)(=O)Nc1ccc(F)c(Oc2ccc3ncn([C@@H]4CCC5(CCN(C6CCC(c7cc8c(cc7F)c(N7CCC(=O)NC7=O)nn8C)CC6)CC5)C4)c(=O)c3c2)c1C#N (single isomer, unassigned) [Compound 31]	4.23
CCN(C)S(=O)(=O)Nc1ccc(F)c(Oc2ccc3ncn([C@H]4COC5(CCC(N6CCC(c7cc8c(cc7F)c(N7CCC(=O)NC7=O)nn8C)C(F)(F)C6)CC5)C4)c(=O)c3c2)c1C#N (single isomer, unassigned) [Compound 39]	1.56
CCN(C)S(=O)(=O)Nc1ccc(F)c(Oc2ccc3ncc([C@@H]4COC5(CCN(C6CCC(c7ccc(NC8CCC(=O)NC8=O)cc7F)CC6)CC5)C4)nc3c2)c1C#N (single isomer, unassigned) [Compound 60]	7.88
CCN(C)S(=O)(=O)Nc1ccc(F)c(Oc2ccc3ncn([C@H]4COC5(CCN(C6CC(c7cc8c(cc7F)c(N7CCC(=O)NC7=O)nn8C)C6)CC5)C4)c(=O)c3c2)c1C#N (single isomer, unassigned) [Compound 70]	2.08
CCN(C)S(=O)(=O)Nc1ccc(F)c(Oc2ccc3ncn(C4CC5(CCN(C6CCC(c7cc8c(cc7F)c(N7CCC(=O)NC7=O)nn8C)CC6F)CC5)C4)c(=O)c3c2)c1C#N (single isomer, unassigned) [Compound 85]	9.81
CCN(C)S(=O)(=O)Nc1ccc(F)c(Oc2ccc3ncn(C4CC5(CCN(C6CCC(c7cc8c(cc7F)c(N7CCC(=O)NC7=O)nn8C)CC6F)CC5)C4)c(=O)c3c2)c1C#N (single isomer, unassigned) [Compound 86]	9.88
CCN(C)S(=O)(=O)Nc1ccc(F)c(Oc2ccc3ncc([C@H]4COC5(CCN(C6CCC(c7cc8c(cc7F)c(N7CCC(=O)NC7=O)nn8C)CC6F)CC5)C4)nc3c2)c1C#N (single isomer, unassigned) [Compound 160]	1.58
CCN(C)S(=O)(=O)Nc1ccc(F)c(Oc2ccc3ncn([C@H]4COC5(CCC(N6CC7(CN(c8ccc(NC9CCC(=O)NC9=O)cc8F)C7)C6)CC5)C4)c(=O)c3c2)c1C#N (stereo partly drawn) [Compound 30, 6-[2-cyano-3-[[ethyl(methyl)sulfamoyl]amino]-6-fluoro-phenoxy]-3-[(3R)-8-[6-[4-[(2,6-dioxo-3-piperidyl)amino]-2-fluoro-phenyl]-2,6-diazaspiro[3.3]heptan-2-yl]-1-oxaspiro[4.5]decan-3-yl]-4-oxo-quinazoline]	8.52

Same assay, conditions: human BSEP (HEK293) vesicles; taurocholate 0.2 μM; 4 mM Mg-ATP; 10 concentrations, 1 replicate; in nM

Structure (SMILES)	BSEP Inhibition/IC50
CCN(C)S(=O)(=O)Nc1ccc(F)c(Oc2ccc3ncn([C@H]4CCC5(CCN(C6CCC(c7cc8c(cc7F)c(N7CCC(=O)NC7=O)nn8C)CC6)CC5)C4)c(=O)c3c2)c1C#N (single isomer, unassigned) [Compound 33]	10060
CCN(C)S(=O)(=O)Nc1ccc(F)c(Oc2ccc3ncn([C@H]4COC5(CCC(N6CCC(c7cc8c(cc7F)c(N7CCC(=O)NC7=O)nn8C)C(F)(F)C6)CC5)C4)c(=O)c3c2)c1C#N (single isomer, unassigned) [Compound 38]	963.6
CCN(C)S(=O)(=O)Nc1ccc(F)c(Oc2ccc3ncc([C@@H]4COC5(CCN(C6CCC(c7cc8c(cc7F)c(N7CCC(=O)NC7=O)nn8C)CC6)CC5)C4)nc3c2)c1C#N (single isomer, unassigned) [Compound 54]	11010
CCN(C)S(=O)(=O)Nc1ccc(F)c(Oc2ccc3ncn(C4CC5(CCN(C6CCC(c7cc8c(cc7F)c(N7CCC(=O)NC7=O)nn8C)CC6F)CC5)C4)c(=O)c3c2)c1C#N (single isomer, unassigned) [Compound 83, 6-[2-cyano-3-[[ethyl(methyl)sulfamoyl]amino]-6-fluoro-phenoxy]-3-[7-[4-[3-(2,4-dioxohexahydropyrimidin-1-yl)-5-fluoro-1-methyl-indazol-6-yl]-2-fluoro-cyclohexyl]-7-azaspiro[3.5]nonan-2-yl]-4-oxo-quinazoline]	14100
Cn1nc(N2CCC(=O)NC2=O)c2cc(F)c(C3CCC(N4CCC5(CC4)CC(n4cnc6ccc(Oc7c(F)ccc(NS(=O)(=O)C8CCCC8)c7C#N)cc6c4=O)C5)CC3)cc21 (single isomer, unassigned) [Compound 93, N-[2-cyano-3-[3-[7-[4-[3-(2,4-dioxohexahydropyrimidin-1-yl)-5-fluoro-1-methyl-indazol-6-yl]cyclohexyl]-7-azaspiro[3.5]nonan-2-yl]-4-oxo-quinazolin-6-yl]oxy-4-fluoro-phenyl]cyclopentanesulfonamide]	>40000
CCN(C)S(=O)(=O)Nc1ccc(F)c(Oc2ccc3ncc(OCC4CCN(C5CCC(c6cc7c(cc6F)c(N6CCC(=O)NC6=O)nn7C)CC5)CC4)nc3c2)c1C#N (single isomer, unassigned) [Compound 118, 7-[2-cyano-3-[[ethyl(methyl)sulfamoyl]amino]-6-fluoro-phenoxy]-2-[[1-[4-[3-(2,4-dioxohexahydropyrimidin-1-yl)-5-fluoro-1-methyl-indazol-6-yl]cyclohexyl]-4-piperidyl]methoxy]quinoxaline]	>40000
CN(CCO)S(=O)(=O)Nc1ccc(F)c(Oc2ccc3ncn(C4CC5(CCN(C6CCC(c7cc8c(cc7F)c(N7CCC(=O)NC7=O)nn8C)CC6F)CC5)C4)c(=O)c3c2)c1C#N (single isomer, unassigned) [Compound 145, 6-[2-cyano-6-fluoro-3-[[2-hydroxyethyl(methyl)sulfamoyl]amino]phenoxy]-3-[7-[4-[3-(2,4-dioxohexahydropyrimidin-1-yl)-5-fluoro-1-methyl-indazol-6-yl]-2-fluoro-cyclohexyl]-7-azaspiro[3.5]nonan-2-yl]-4-oxo-quinazoline]	21630
CCN(C)S(=O)(=O)Nc1ccc(F)c(Oc2ccc3ncc(C4CC5(CCN(C6CCC(c7cc8c(cc7F)c(N7CCC(=O)NC7=O)nn8C)CC6)CC5)C4)nc3c2)c1C#N (single isomer, unassigned) [Compound 180, 7-[2-cyano-3-[[ethyl(methyl)sulfamoyl]amino]-6-fluoro-phenoxy]-2-[7-[4-[3-(2,4-dioxohexahydropyrimidin-1-yl)-5-fluoro-1-methyl-indazol-6-yl]cyclohexyl]-7-azaspiro[3.5]nonan-2-yl]quinoxaline]	12180
CCN(C)S(=O)(=O)Nc1ccc(F)c(Oc2ccc3ncn([C@H]4COC5(CCN(C6CC7(C6)CN(c6cc8c(cc6F)c(N6CCC(=O)NC6=O)nn8C)C7)CC5)C4)c(=O)c3c2)c1C#N [Compound 26, (3R)-3-[6-[2-cyano-3-[[ethyl(methyl)sulfamoyl]amino]-6-fluoro-phenoxy]-4-oxo-quinazolin-3-yl]-8-[2-[3-(2,4-dioxohexahydropyrimidin-1-yl)-5-fluoro-1-methyl-indazol-6-yl]-2-azaspiro[3.3]heptan-6-yl]-1-oxa-8-azaspiro[4.5]decane]	21770
CCN(C)S(=O)(=O)Nc1ccc(F)c(Oc2ccc3ncn(C4CC5(CCN(C6CC7(C6)CN(c6cc8c(cc6F)c(N6CCC(=O)NC6=O)nn8C)C7)CC5)C4)c(=O)c3c2)c1C#N (stereo not shown) [Compound 141, 6-[2-cyano-3-[[ethyl(methyl)sulfamoyl]amino]-6-fluoro-phenoxy]-3-[7-[2-[3-(2,4-dioxohexahydropyrimidin-1-yl)-5-fluoro-1-methyl-indazol-6-yl]-2-azaspiro[3.3]heptan-6-yl]-7-azaspiro[3.5]nonan-2-yl]-4-oxo-quinazoline]	>40000
